The source of these data is ChEMBL document CHEMBL1201862, “PubChem BioAssay data set” (2004).

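Tested at 5 concentrations; 48 h exposure; 96-well plates; endpoints linearly interpolated, else capped at highest concentration. Here, GI50 denotes the concentration required for 50% inhibition of growth.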 Active and inactive are the calls of the source. Cut-off read from the data, not from the text of the source: active = GI50 up to about 1.1 µM and inactive = higher.

Test systems include 786-0; A498; CAKI-1; COLO 205; DU-145; Hs-578T; MDA-MB-435; MDA-N; MOLT-4; NCI-H226; SF-295; SK-MEL-28; SK-MEL-5; SNB-19; SNB-75; T47D; TK-10; U-251; UACC-257; UO-31.
Experiment in all cases: growth of human tumour cells (NCI), 48 h

With `COc1ccccc1NC(=O)CC(=O)NN`, the GI50 with 786-0, in the experiment with A498, with CAKI-1, in the experiment with COLO 205, in the experiment on DU-145 and in the experiment on Hs-578T was > 100 µM (inactive) in each case. For the same compound, the GI50 in the experiment on MDA-MB-435, in the experiment with MDA-N, with MOLT-4, with NCI-H226, in the experiment on SF-295 and in the experiment with SK-MEL-28 was > 100 µM (inactive) in each case. The GI50 in the experiment on SK-MEL-5, in the experiment with SNB-19, in the experiment with SNB-75, in the experiment on T47D, with TK-10 and in the experiment with U-251 was > 100 µM (inactive) in each case. The GI50 in the experiment on UACC-257 and in the experiment with UO-31 was > 100 µM (inactive) in each case.

Consider `C=CCN1C(=O)C[C@H](Cc2ccccc2)NC(=O)C[C@H](Cc2ccccc2)N(CC=C)C(=O)C[C@H](Cc2ccccc2)NC(=O)C[C@@H]1Cc1ccccc1`, for which the GI50 in the experiment on 786-0 was 47.8 µM (inactive); in the experiment with A498, 7.01 µM (inactive); in the experiment with CAKI-1, 5.15 µM (inactive); in the experiment with COLO 205, 2.3 µM (inactive); in the experiment with DU-145, > 100 µM (inactive); with Hs-578T, > 100 µM (inactive). Also, the GI50 was 5.93 µM (inactive) in the experiment with MDA-MB-435; 8.91 µM (inactive) in the experiment on MDA-N; 2.69 µM (inactive) with MOLT-4; 14 µM (inactive) in the experiment with NCI-H226; 23.6 µM (inactive) with SF-295; 61.9 µM (inactive) with SK-MEL-28. Further, the GI50 with SK-MEL-5 was 20.7 µM (inactive); in the experiment on SNB-19 it was > 100 µM (inactive); in the experiment with SNB-75, 3.92 µM (inactive); in the experiment with T47D it was 6.3 µM (inactive); in the experiment on TK-10, 8.79 µM (inactive); in the experiment on U-251, 12.9 µM (inactive). In addition, the GI50 in the experiment with UACC-257 was 6.97 µM (inactive); in the experiment on UO-31, 7.03 µM (inactive).

Regarding `Cc1ccc([N+](=O)[O-])cc1S(=O)(=O)Nc1ccc(C2=NN(S(=O)(=O)c3cc([N+](=O)[O-])ccc3C)C(c3ccccc3)C2)cc1` (stereo not given), the GI50 with 786-0 is 39.5 µM (inactive); in the experiment on A498, 16.5 µM (inactive); with CAKI-1, 35.8 µM (inactive); in the experiment on COLO 205, 27 µM (inactive); with DU-145 it was 42.3 µM (inactive); in the experiment on Hs-578T it was < 0.01 µM (active). In addition, the GI50 was 36.8 µM (inactive) in the experiment on MDA-MB-435; 30.1 µM (inactive) in the experiment on MDA-N; 30 µM (inactive) with MOLT-4; 54.2 µM (inactive) in the experiment on NCI-H226; 21.7 µM (inactive) with SF-295; 82.8 µM (inactive) in the experiment on SK-MEL-28. Further, the GI50 was 26.3 µM (inactive) in the experiment on SK-MEL-5; 36.4 µM (inactive) in the experiment with SNB-19; 64.6 µM (inactive) in the experiment on SNB-75; 41.4 µM (inactive) with T47D; 30.9 µM (inactive) in the experiment on TK-10; 29.8 µM (inactive) in the experiment with U-251. For the same compound, the results for the GI50 in the experiment on UACC-257 and in the experiment on UO-31 were 24.8 µM (inactive) and 28.6 µM (inactive), respectively.

In the case of `Cn1c(=O)c2c(nc3n(C)c(=O)c4ccccc4n23)n(C)c1=O`, the GI50 in the experiment with 786-0 is 29.6 µM (inactive); in the experiment on A498, 18.9 µM (inactive); with CAKI-1 it was 24.3 µM (inactive); in the experiment on COLO 205, > 93.5 µM (inactive); in the experiment with DU-145 it was 21.9 µM (inactive); with Hs-578T, 59.3 µM (inactive). In addition, the GI50 with MDA-MB-435 is > 100 µM (inactive); in the experiment on MDA-N, > 100 µM (inactive); with MOLT-4 it was 3.18 µM (inactive); with NCI-H226, 30 µM (inactive); in the experiment with SF-295, 22.4 µM (inactive); in the experiment with SK-MEL-28, > 100 µM (inactive). Also, the GI50 is 27.8 µM (inactive) in the experiment with SK-MEL-5; 25.8 µM (inactive) in the experiment on SNB-19; 40.1 µM (inactive) with SNB-75; > 71 µM (inactive) in the experiment on T47D; > 100 µM (inactive) with TK-10; 34 µM (inactive) in the experiment on U-251. Besides, the GI50 in the experiment on UACC-257 was > 100 µM (inactive); with UO-31, 39.1 µM (inactive).

Consider `CCC#CCCCCCCCCC(F)C(=O)O` (stereo not given), for which the GI50 in the experiment with 786-0, in the experiment on A498, in the experiment on CAKI-1, with COLO 205, with DU-145 and in the experiment on Hs-578T was > 100 µM (inactive) throughout. Moreover, the GI50 in the experiment with MDA-MB-435, in the experiment on MDA-N, in the experiment on MOLT-4, in the experiment on NCI-H226, with SF-295 and in the experiment with SK-MEL-28 was > 100 µM (inactive) each time. In addition, the GI50 in the experiment on SK-MEL-5, in the experiment on SNB-19, in the experiment on SNB-75, with T47D, with TK-10 and with U-251 was > 100 µM (inactive) each time. In addition, the GI50 in the experiment on UACC-257 and in the experiment with UO-31 was > 100 µM (inactive) each time.

For the compound `O=C(c1c(F)c(F)c(F)c(F)c1F)N1CCN(C(=O)c2c(F)c(F)c(F)c(F)c2F)C1=S`, the GI50 is 13.2 µM (inactive) in the experiment on 786-0; 18.1 µM (inactive) in the experiment with A498; 2.69 µM (inactive) in the experiment on CAKI-1; 7.01 µM (inactive) in the experiment on COLO 205; 14 µM (inactive) with DU-145; 4.66 µM (inactive) in the experiment on Hs-578T. Further, the GI50 in the experiment on MDA-MB-435 is 3.3 µM (inactive); in the experiment with MDA-N, 2.48 µM (inactive); with MOLT-4, 2.77 µM (inactive); with NCI-H226, 15.4 µM (inactive); with SF-295 it was 15.1 µM (inactive); with SK-MEL-28, 4.8 µM (inactive). Moreover, the GI50 with SK-MEL-5 is 6.9 µM (inactive); with SNB-19, 16.4 µM (inactive); with SNB-75 it was 11 µM (inactive); in the experiment with T47D it was 6.46 µM (inactive); in the experiment with TK-10, 13.9 µM (inactive); with U-251, 6.49 µM (inactive). In addition, the values for the GI50 in the experiment on UACC-257 and with UO-31 were 8.34 µM (inactive) and 5.55 µM (inactive), respectively.

Consider `COc1cccc(C2c3cc4c(cc3OC(C)(N3CCCC3)C2C)OCO4)c1` (stereo not given), for which the GI50 with 786-0 was 26.1 µM (inactive); in the experiment on A498, 14 µM (inactive); in the experiment on CAKI-1, 17.1 µM (inactive); with COLO 205, 11.4 µM (inactive); with DU-145, 20.7 µM (inactive); in the experiment on Hs-578T it was 3.07 µM (inactive). Moreover, the GI50 in the experiment on MDA-MB-435 was 4.19 µM (inactive); with MDA-N it was 2.13 µM (inactive); in the experiment on MOLT-4, 51.3 µM (inactive); with NCI-H226, 6.4 µM (inactive); in the experiment on SF-295, 8.83 µM (inactive); in the experiment with SK-MEL-28, 20.3 µM (inactive). Also, the GI50 in the experiment with SK-MEL-5 is 3.92 µM (inactive); in the experiment with SNB-19, 21.9 µM (inactive); in the experiment on SNB-75, 3.18 µM (inactive); in the experiment on T47D, 11.2 µM (inactive); in the experiment with TK-10, 10.9 µM (inactive); in the experiment with U-251 it was 7.59 µM (inactive). Moreover, the GI50 with UACC-257 was 18.2 µM (inactive); in the experiment with UO-31, 13.1 µM (inactive).

Regarding `Cc1cc(N(CC(C)Br)CC(C)Br)ccc1/N=N/c1ccccc1C(=O)O` (stereo not given), the GI50 in the experiment on 786-0 is 2.77 µM (inactive); with A498 it was 1.67 µM (inactive); in the experiment on CAKI-1, 2.49 µM (inactive); in the experiment on COLO 205 it was 5.47 µM (inactive); in the experiment on DU-145 it was 7.67 µM (inactive); with Hs-578T, 11.1 µM (inactive). Moreover, the GI50 in the experiment with MDA-MB-435 was 16.3 µM (inactive); in the experiment with MDA-N, 4.23 µM (inactive); in the experiment on MOLT-4 it was 16.9 µM (inactive); in the experiment on NCI-H226, 4.52 µM (inactive); in the experiment with SF-295, 0.948 µM (active); in the experiment on SK-MEL-28, 1.93 µM (inactive). Also, the GI50 in the experiment on SK-MEL-5 was 3.19 µM (inactive); with SNB-19 it was 9.04 µM (inactive); in the experiment on SNB-75 it was 2.43 µM (inactive); in the experiment on T47D it was 0.592 µM (active); in the experiment on TK-10 it was 11.7 µM (inactive); in the experiment with U-251, 4.8 µM (inactive). In addition, the GI50 with UACC-257 is 4.53 µM (inactive); in the experiment on UO-31 it was 5.86 µM (inactive).

On to `CC1Cc2cc(O)ccc2C2[C@@H]1C1CC[C@H](O)[C@@]1(C)C[C@@H]2O[N+](=O)[O-]` (stereo not given in full), for which the GI50 in the experiment on 786-0 is 8.26 µM (inactive); in the experiment with A498, 31.8 µM (inactive); in the experiment with CAKI-1 it was 10.2 µM (inactive); in the experiment with COLO 205, 22.3 µM (inactive); with DU-145, 7.45 µM (inactive); in the experiment on Hs-578T, 3.21 µM (inactive). The GI50 in the experiment with MDA-MB-435 is 2.52 µM (inactive); in the experiment with MDA-N it was 1.96 µM (inactive); with MOLT-4 it was 7.48 µM (inactive); in the experiment on NCI-H226, 32.1 µM (inactive); in the experiment with SF-295, 7.29 µM (inactive); with SK-MEL-28, 17.5 µM (inactive). The GI50 in the experiment with SK-MEL-5 is 4.93 µM (inactive); in the experiment on SNB-19 it was 9.68 µM (inactive); with SNB-75 it was 10.3 µM (inactive); in the experiment with T47D it was 9.55 µM (inactive); in the experiment on TK-10, 13.2 µM (inactive); in the experiment on U-251, 3.99 µM (inactive). The figures for the GI50 in the experiment with UACC-257 and with UO-31 were 13 µM (inactive) and 13.7 µM (inactive), respectively.

For the compound `COc1ccc(C(=O)c2cc(OC)c(OC)c(OC)c2)cc1`, the GI50 in the experiment with 786-0 is 0.169 µM (active); with A498 it was 0.0713 µM (active); in the experiment with CAKI-1, 0.0738 µM (active); in the experiment with COLO 205, 0.0706 µM (active); in the experiment on DU-145, 0.205 µM (active); with Hs-578T, 0.111 µM (active). The GI50 was 0.0197 µM (active) with MDA-MB-435; 0.016 µM (active) in the experiment on MDA-N; 0.0715 µM (active) with MOLT-4; 1.11 µM (active) with NCI-H226; 0.0399 µM (active) in the experiment on SF-295; 0.733 µM (active) with SK-MEL-28. The GI50 in the experiment on SK-MEL-5 was 0.0702 µM (active); in the experiment with SNB-19 it was 0.199 µM (active); in the experiment with SNB-75, 0.0726 µM (active); in the experiment on T47D it was 27.5 µM (inactive); with TK-10, 4.11 µM (inactive); in the experiment on U-251, 0.206 µM (active). Further, the figures for the GI50 with UACC-257 and in the experiment on UO-31 were 0.769 µM (active) and 1 µM (active), respectively.
